For assay [1], the species on record is Rattus norvegicus. In words: In vitro growth hormone release in rat pituitary cells at 1 uM; Weakly active. The class given is functional, cell-based. As to conditions: Pituitary gland cell.
For assay [2], the species on record is Rattus norvegicus. Put plainly: In vitro growth hormone release in rat pituitary cells. Type of assay: functional. As to conditions: Pituitary gland cell, read-out: ED50 (the source's name).
The species entered for assay [3] is Rattus norvegicus. In words: In vitro growth hormone release in rat pituitary cells at 10 uM; inactive. Type of assay: functional, cell-based. The following applies: Pituitary gland cell.

pEC50: −log10 of the molar value. Calls of active or inactive are those of the source. The rule behind the calls is not given here.

Consider `CC(C)(N)CC(=O)OC1CCc2ccccc2N(Cc2ccc(-c3ccccc3-c3nn[nH]n3)cc2)C1=O` (configuration not stated), for which the “Growth hormone release at 1 uM (qualitative)” value (“Growth hormone release at 1 uM” below) in the assay listed under Rattus norvegicus [1] is “Weak activity”.

Take `CC(C)(N)NC(=O)N[C@@H]1CCc2ccccc2N(Cc2ccc(-c3ccccc3-c3nn[nH]n3)cc2)C1=O`: the “Growth hormone release at 1 uM” value in the assay filed under Rattus norvegicus [1] was “Weak activity”.

Take `CC(C)(N)CCSC1CCc2ccccc2N(Cc2ccc(-c3ccccc3-c3nn[nH]n3)cc2)C1=O` (configuration not stated): in the assay listed under Rattus norvegicus [2], the pEC50 is 5.22.

For the compound `CC(C)(N)CCC(=O)N[C@@H]1CCc2ccccc2N(Cc2ccc(-c3ccccc3-c3nn[nH]n3)cc2)C1=O`, in the assay listed under Rattus norvegicus [2], the pEC50 was 5.52.

`CC(C)(N)CC(=O)N[C@@H]1CCc2ccccc2N(Cc2ccc(-c3ccccc3-c3nn[nH]n3)cc2)C1=O`: in the assay listed under Rattus norvegicus [2], the pEC50 is 7.22.

Consider `C[C@H](O)CNC(C)(C)CNC(=O)N[C@@H]1CCc2ccccc2N(Cc2ccc(-c3ccccc3-c3nn[nH]n3)cc2)C1=O`, for which the pEC50 in the assay listed under Rattus norvegicus [2] is 5.60.

On to `CC(C)(N)CNC(=O)N[C@@H]1CCc2ccccc2N(Cc2ccc(-c3ccccc3-c3nn[nH]n3)cc2)C1=O`, for which the pEC50 in the assay listed under Rattus norvegicus [2] is 7.00.

As for `C[C@@H](O)CNC(C)(C)CNC(=O)N[C@@H]1CCc2ccccc2N(Cc2ccc(-c3ccccc3-c3nn[nH]n3)cc2)C1=O`, the “Growth hormone release at 1 uM” value in the assay listed under Rattus norvegicus [1] is “Weak activity”.

For the compound `CC(C)(N)CC(=O)NC1CCc2ccccc2N(Cc2ccc(-c3ccccc3-c3nn[nH]n3)cc2)C1=O` [L-158432], in the assay filed under Rattus norvegicus [2], the pEC50 was 6.92.

With `C[C@@H](O)CNC(C)(C)CC(=O)N[C@@H]1CCc2ccccc2N(Cc2ccc(-c3ccccc3-c3nn[nH]n3)cc2)C1=O` [L-692585], in the assay filed under Rattus norvegicus [2], the pEC50 was 8.52.

`CC(C)(N)C(=O)N[C@@H]1CCc2ccccc2N(Cc2ccc(-c3ccccc3-c3nn[nH]n3)cc2)C1=O`: the pEC50 in the assay filed under Rattus norvegicus [2] was 7.52.

Take `CC(C)(N)CC(=O)N(Cc1ccccc1)[C@@H]1CCc2ccccc2N(Cc2ccc(-c3ccccc3-c3nn[nH]n3)cc2)C1=O`: the ED50 entry in the assay filed under Rattus norvegicus [3] was “inactive”.

`CC(C)(N)CCCSC1CCc2ccccc2N(Cc2ccc(-c3ccccc3-c3nn[nH]n3)cc2)C1=O` (configuration not stated): the pEC50 in the assay listed under Rattus norvegicus [2] was 5.15.

As to `CN(C(=O)CC(C)(C)N)[C@@H]1CCc2ccccc2N(Cc2ccc(-c3ccccc3-c3nn[nH]n3)cc2)C1=O`, the pEC50 in the assay listed under Rattus norvegicus [2] was 5.15.

On to `C[C@H](O)CNC(C)(C)CC(=O)N[C@@H]1CCc2ccccc2N(Cc2ccc(-c3ccccc3-c3nn[nH]n3)cc2)C1=O`, for which the pEC50 in the assay filed under Rattus norvegicus [2] was 8.15.

In the case of `CC(C)(N)CCNC1CCc2ccccc2N(Cc2ccc(-c3ccccc3-c3nn[nH]n3)cc2)C1=O` (configuration not stated), the “Growth hormone release at 1 uM” value in the assay listed under Rattus norvegicus [1] is “Weak activity”.

Take `CC(C)(N)CNC1CCc2ccccc2N(Cc2ccc(-c3ccccc3-c3nn[nH]n3)cc2)C1=O` (configuration not stated): the pEC50 in the assay listed under Rattus norvegicus [2] was 6.00.

The values are drawn from ChEMBL document CHEMBL1128955, “Benzolactam growth hormone secretagogues: Replacement of the C-3 amide bond in L-692,429” (1996).
